From publication PMC11129182, “Development of Inhibitors, Probes, and PROTAC Provides a Complete Toolbox to Study PARK7 in the Living Cell” (Journal of Medicinal Chemistry, 2024)
Where two headings read alike, the source gives them in different places.

Key:
[1] = target: T1, PARK7 (Homo sapiens, UniProt Q99497); test: Hit validation and pure-compound testing in the PARK7 FP assay with JYQ-107; format: biochemical; conditions: for inhibition at 0.25 µM: read-out: % Inhibition 0.25 µM; for inhibition at 0.5 µM: read-out: % Inhibition 0.5 µM
T1 sequence (Q99497 1-189): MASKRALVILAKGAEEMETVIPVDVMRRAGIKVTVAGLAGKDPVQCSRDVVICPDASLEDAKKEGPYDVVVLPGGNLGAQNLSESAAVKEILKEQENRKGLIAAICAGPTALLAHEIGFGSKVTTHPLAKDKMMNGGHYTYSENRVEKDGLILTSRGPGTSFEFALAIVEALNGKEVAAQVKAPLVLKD

[2] = target: T1, PARK7; test: High-throughput screen of the crude compound library, PARK7 fluorescence polarization (FP) assay with FP reagent JYQ-107; format: biochemical; conditions: 1.25 µM, crude compound library; read-out: HTS FP assay %Inhibition (1.25 µM)

Structure (SMILES) | inhibition at 0.25 µM ([1]; crude compounds) | inhibition at 0.5 µM ([1]; crude compounds) | inhibition at 1 µM ([1]; crude compounds) | inhibition at 1.25 µM [2] | inhibition at 0.25 µM ([1]; pure compounds) | inhibition at 1 µM ([1]; pure compounds)
N#CN1CC[C@@H](C(=O)Nc2nc3c(s2)CN(C(=O)c2cc(-c4ccc(Cl)s4)[nH]n2)CC3)C1 [Compound 64] | 33.1% | 63.2% | 89.5% | 90% | – | –
CCC1(Cn2cc(C(=O)N3CCc4nc(NC(=O)[C@@H]5CCN(C#N)C5)sc4C3)nn2)COC1 [Compound 83] | 47.6% | 73.1% | 92.7% | 92.3% | – | –
Cc1nc(-c2cnn(C)c2)sc1C(=O)N1CCc2nc(NC(=O)[C@@H]3CCN(C#N)C3)sc2C1 [Compound 112] | 54.6% | 78% | 93.1% | 91.1% | – | –
COc1ccc(C(=O)N2CCc3nc(NC(=O)[C@@H]4CCN(C#N)C4)sc3C2)cc1S(=O)(=O)N1CCCCCC1 [Compound 133, (R)-N-(5-(3-(Azepan-1-ylsulfonyl)-4-methoxybenzoyl)-4,5,6,7-tetrahydrothiazolo[5,4-c]pyridin-2-yl)-1-cyanopyrrolidine-3-carboxamid] | 76.3% | 89.1% | 98.8% | 90.8% | 77.9% | 95.4%
N#CN1CC[C@@H](C(=O)Nc2nc3c(s2)CN(C(=O)c2cc(-c4ccco4)on2)CC3)C1 [Compound 139] | 58.2% | 80.9% | 94.3% | 91.5% | – | –
N#CN1CC[C@@H](C(=O)Nc2nc3c(s2)CN(C(=O)c2ccc(Cn4cc(Br)cn4)o2)CC3)C1 [Compound 140] | 36.9% | 62.1% | 85.7% | 90.7% | – | –
N#CN1CC[C@@H](C(=O)Nc2nc3c(s2)CN(C(=O)c2cc(S(=O)(=O)NCCCN4CCCC4=O)ccc2Cl)CC3)C1 [Compound 146] | 45% | 70.4% | 90.7% | 89.7% | – | –
CC(C)c1nc(Cn2cc(C(=O)N3CCc4nc(NC(=O)[C@@H]5CCN(C#N)C5)sc4C3)ccc2=O)cs1 [Compound 149] | 42.9% | 69.6% | 89.6% | 93.2% | – | –
N#CN1CC[C@@H](C(=O)Nc2nc3c(s2)CN(C(=O)c2csc(C4CC4)n2)CC3)C1 [Compound 152] | 45.4% | 67.6% | 89.3% | 92.4% | – | –
N#CN1CC[C@@H](C(=O)Nc2nc3c(s2)CN(C(=O)C2CC(=O)N(C4CCCCCC4)C2)CC3)C1 (stereo partly shown) [Compound 163] | 43.1% | 70.9% | 90.3% | 89.6% | – | –
N#CN1CC[C@@H](C(=O)Nc2nc3c(s2)CN(C(=O)c2cc(C4CCCCC4)[nH]n2)CC3)C1 [Compound 164] | 48.2% | 75.6% | 94.4% | 95.1% | – | –
Cc1ccc(-c2cc(C(=O)N3CCc4nc(NC(=O)[C@@H]5CCN(C#N)C5)sc4C3)n[nH]2)s1 [Compound 165] | 56.4% | 82.2% | 95.6% | 95.1% | – | –
N#CN1CC[C@@H](C(=O)Nc2nc3c(s2)CN(C(=O)C2CN(S(=O)(=O)C4CC4)C2)CC3)C1 [Compound 174] | 35% | 63.1% | 87.7% | 91.8% | – | –
Cc1ccc([C@@H]2C[C@H]2C(=O)N2CCc3nc(NC(=O)[C@@H]4CCN(C#N)C4)sc3C2)s1 [Compound 188] | 53.3% | 79% | 94.5% | 94.2% | – | –
N#CN1CC[C@@H](C(=O)Nc2nc3c(s2)CN(C(=O)c2ccc(Cl)c(N4CCCS4(=O)=O)c2)CC3)C1 [Compound 197] | 65.4% | 85.8% | 95% | 95.6% | – | –
COc1ccc(C(=O)N2CCc3nc(NC(=O)[C@@H]4CCN(C#N)C4)sc3C2)cc1S(=O)(=O)NCCCN1CCOCC1 [Compound 242] | 46.8% | 71.2% | 91.4% | 89.2% | – | –
CN(CC1CC1)c1ccc(C(F)(F)F)cc1C(=O)N1CCc2nc(NC(=O)[C@@H]3CCN(C#N)C3)sc2C1 [Compound 304] | 50.5% | 73.9% | 93.7% | 93.7% | – | –
N#CN1CC[C@@H](C(=O)Nc2nc3c(s2)CN(C(=O)c2cnn(-c4ccc(C(F)(F)F)cc4)c2)CC3)C1 [Compound 314] | 43.8% | 75.1% | 93% | 98.2% | – | –
Cc1c[nH]c(=O)n1-c1cccc(C(=O)N2CCc3nc(NC(=O)[C@@H]4CCN(C#N)C4)sc3C2)c1 [Compound 315] | 44% | 66.5% | 91.2% | 90% | – | –
N#CN1CC[C@@H](C(=O)Nc2nc3c(s2)CN(C(=O)CCn2nc(C(F)(F)F)cc2C2CC2)CC3)C1 [Compound 333] | 57.5% | 79.2% | 94.5% | 93.5% | – | –
Cn1cc(-c2cc(C(=O)N3CCc4nc(NC(=O)[C@@H]5CCN(C#N)C5)sc4C3)n[nH]2)cn1 [Compound 337] | 51.5% | 72.7% | 92.5% | 89.6% | – | –

The remaining lines, values ahead:

inhibition at 0.25 µM ([1]; crude compounds) | inhibition at 0.5 µM ([1]; crude compounds) | inhibition at 1 µM ([1]; crude compounds) | inhibition at 1.25 µM [2] | inhibition at 0.25 µM ([1]; pure compounds) | inhibition at 1 µM ([1]; pure compounds) | Structure (SMILES)
54.4% | 78% | 92.1% | 91.3% | – | – | N#CN1CC[C@@H](C(=O)Nc2nc3c(s2)CN(C(=O)c2cn(CCc4ccccc4)nn2)CC3)C1 [Compound 76]
56.4% | 78.2% | 93.5% | 94% | – | – | N#CN1CC[C@@H](C(=O)Nc2nc3c(s2)CN(C(=O)c2cccc(COc4cccc(F)c4)c2)CC3)C1 [Compound 110]
52% | 77.6% | 93.8% | 90.5% | – | – | Cc1ccc(-c2cc(C(=O)N3CCc4nc(NC(=O)[C@@H]5CCN(C#N)C5)sc4C3)[nH]n2)o1 [Compound 121]
66.1% | 84.3% | 96.9% | 91% | – | – | N#CN1CC[C@@H](C(=O)Nc2nc3c(s2)CN(C(=O)c2cccc(-c4ncn[nH]4)c2)CC3)C1 [Compound 131]
50.5% | 79.8% | 94.7% | 92.6% | – | – | N#CN1CC[C@@H](C(=O)Nc2nc3c(s2)CN(C(=O)c2cnn(-c4cccc(Br)c4)c2)CC3)C1 [Compound 156]
52.1% | 78.4% | 93.3% | 91.5% | – | – | N#CN1CC[C@@H](C(=O)Nc2nc3c(s2)CN(C(=O)c2cccc(Cn4ccnc4)c2)CC3)C1 [Compound 215]
55.5% | 85.4% | 94.3% | 78.9% | – | – | N#CN1CC[C@@H](C(=O)Nc2nc3c(s2)CN(C(=O)Cc2cnn(-c4ccccc4)n2)CC3)C1 [Compound 217]
65.1% | 87.4% | 96.7% | 96.4% | – | – | N#CN1CC[C@@H](C(=O)Nc2nc3c(s2)CN(C(=O)c2cnn(-c4ccc(Br)cc4)c2)CC3)C1 [Compound 219]
44.4% | 72.9% | 91% | 89.2% | – | – | N#CN1CC[C@@H](C(=O)Nc2nc3c(s2)CN(C(=O)c2ccc(-c4ccccn4)s2)CC3)C1 [Compound 258]
33.9% | 63.1% | 82.8% | 89.7% | – | – | N#CN1CC[C@@H](C(=O)Nc2nc3c(s2)CN(C(=O)c2ccc(Oc4cccc(Cl)c4)cn2)CC3)C1 [Compound 268]
44.5% | 71.4% | 91.8% | 92.9% | – | – | N#CN1CC[C@@H](C(=O)Nc2nc3c(s2)CN(C(=O)c2ccc(-c4ccccn4)nc2)CC3)C1 [Compound 274]
82.4% | 96.1% | 96.8% | 94.2% | – | – | N#CN1CC[C@@H](C(=O)Nc2nc3c(s2)CN(C(=O)c2cc(-n4cccc4)ccn2)CC3)C1 [Compound 279]
48.1% | 76% | 93% | 97.5% | – | – | COc1ccccc1-c1cc(C(=O)N2CCc3nc(NC(=O)[C@@H]4CCN(C#N)C4)sc3C2)n[nH]1 [Compound 293]
38.6% | 65.4% | 88% | 89.6% | – | – | N#CN1CC[C@@H](C(=O)Nc2nc3c(s2)CN(C(=O)c2cnn(-c4ccccc4)n2)CC3)C1 [Compound 295]
18.8% | 50.2% | 83.4% | 90.8% | – | – | N#CN1CC[C@@H](C(=O)Nc2nc3c(s2)CN(C(=O)c2coc(C#Cc4ccccc4)c2)CC3)C1 [Compound 311]
34.1% | 62.9% | 89.5% | 92.1% | – | – | N#CN1CC[C@@H](C(=O)Nc2nc3c(s2)CN(C(=O)c2cccc(Oc4ccc(Cl)cc4)n2)CC3)C1 [Compound 312]
63% | 81.5% | 94.7% | 94.5% | – | – | N#CN1CC[C@@H](C(=O)Nc2nc3c(s2)CN(C(=O)c2cccnc2Oc2ccccc2Br)CC3)C1 [Compound 313]
